Measurements published in patent US20240285808A1, “MOLECULAR PROBES FOR IN VIVO DETECTION OF ALDEHYDES” (The General Hospital Corporation, priority 2021, published 2024).
Values joined by “and” are separate entries in the source; they are usually repeats but may differ in a detail not shown here. Identical values can stand only once. Like-named read-outs stand apart in the source and are kept apart here.

Tests used:
[1] = system: lungs of bleomycin-injured mice; experiment: MR imaging of lung in bleomycin lung fibrosis model; type: in vivo, mouse; details: for ΔLMR in lungs, pair-wise comparison: 60 min post injection, individual mice ID 1-6
Description: C57Bl/6 adult male mice at 8 weeks of age (Jackson Laboratories, Barr Harbor, ME) received a single intratracheal dose of bleomycin, 1 units/kg body weight (50 μL total volume) (Fresenius Kabi, Lake Zurich, Il) as previously described in Desogere, P., et al. Optimization of a Collagen-Targeted PET Probe for Molecular Imaging of Pulmonary Fibrosis. J Nuc Med 58, 1991-1996 (2017).
Pair-Wise Comparison Between Gd-CHyd and Gd-9 in Lung Fibrosis Model:
A series of baseline images were first acquired. […] Then anesthesia was removed, and the mouse was allowed to awake and return to cage. After 4 hours, the same mouse was anesthetized again.
Pair-wise comparison between Mn-15 and Mn-17 in lung fibrosis model: The bleomycin-injured mice were first randomly imaged with Mn-15 or Mn-17 and then 24 hours later same imaging protocol was performed in the same mice with the other probe.
Animals were anesthetized with isoflurane (1-2%) and placed in a specially designed cradle with body temperature maintained at 37° C. The inhaled isoflurane level was adjusted to maintain a respiration rate of 60±5 breaths per minute. The tail vein was cannulated for intravenous (i.v.) delivery of the contrast agent while the animal was positioned in the scanner. Imaging was performed at 4.7 T using a small bore animal scanner with a custom-built volume coil. Mice were imaged with a dose of 100 μmol/kg from 30 mM stock solution of Gd or Mn complex.
For lung imaging, images were acquired with following sequences and parameters: 3D Ultrashort TE (3D-UTE, TR/TE/FA=4 ms/11.75 μs/16°, 0.6 mm isotropic spatial resolution, field of view (FOV) 75 mm×75 mm, one average, acquisition time=6.1 min) images were acquired prior to and dynamically post injection of contrast agent; Rapid Acquisition with Relaxation Enhancement (RARE, TR/TE/FA=1.5 s/8 ms/180°, 0.3 mm isotropic spatial resolution, field of view (FOV) 60 mm×50 mm, four average, acquisition time=6.1 min) and T1-weighted 3D Fast Low Angle Shot (FLASH, TR/TE/FA=10 ms/2.5 ms/30°, 0.6 mm isotropic spatial resolution, field of view (FOV) 60 mm×50 mm, one average, acquisition time=6.1 min) images were also acquired.
A total of 6 lung ROIs were defined on axial UTE images to obtain signal intensity (SI); ROIs in the dorsal muscle in each slice were also defined as reference; ROIs in the field of view without any tissue (air) were used to measure the variation in background signal. Then the lung-to muscle ratio (LMR) or contrast to noise ratio (CNR) was averaged from the 6 slices to calculate changes in LMR (ΔLMR) or CNR (ΔCNR) at each time point.
Gd-9 is a Gd-DOTA derivative with two hydrazine arms synthesized by amide coupling of two tBu-piperazin-1-ylcarbamate groups to 1,4,7,10-tetraazacyclododecane-1,4-bis(tBu-acetate)-4,10-bis(glutaric acid 1-tBu ester), followed by acid deprotection and gadolinium complexation. C57Bl/6 adult male mice at 8 weeks of age received a single intratracheal dose of bleomycin, 1 U/kg body weight (50 μL total volume) as previously described. Pair-wise imaging study of GdCHyd and Gd-9 was carried out in mice at day 14 post bleomycin injury on a 4.7 T MRI with a dose of 100 μmol/kg of each probe. For the treatment study, mice were imaged first at day 10 post bleomycin injury, then treated daily with oral gavage of either epigallocatechin gallate (EGCG, 100 mg/kg) or PBS (vehicle) for 11 days. At day 21 post bleomycin injury, the animals were imaged again. MRI consisted of T1-weighted UTE (TR/TE/flip angle=4 ms/0.011 ms/15°) images acquired prior to and up to 30 minutes following intravenous administration of Gd-9 ([…]). Following the second imaging session, animals were euthanized (60 minutes post injection), and lung tissues were removed for further analysis.

[2] = Kinetics of hydrolysis of butyraldehyde condensation products; type: physicochemical
Description: Quantitative Measurements of Kinetics of Hydrolysis:
One mM solutions of Mn-15-Ald, Mn-16-Ald and Mn-17-Ald (where Mn-Ald refers to the reaction product with either Mn-15, Mn-16, or Mn-17) were prepared by the following procedure: 1 mM (1 mL) of Mn-15, Mn-16 or Mn-17 were prepared in PBS (pH 7.4) followed by addition of butyraldehyde (14.4 mg, […]). The mixture was rocked gently under room temperature for 10 min and then freeze-dried for 12 hours. Then, the obtained white solid was redissolved in 1 mL water.
The HPLC trace of each butyraldehyde reaction product was measured by Method 25 (Mn-15-Ald) and Method 26 (Mn-16-Ald, Mn-17-Ald). Then, a 37% stock solution of formaldehyde was added to give a final formaldehyde concentration of 200 mM.
The hydrolysis of the hydrazone/oxime is reversible. An excess of formaldehyde was added to trap the liberated nitrogen base and thereby push the hydrolysis reaction to completion, allowing the hydrolysis reaction to be monitored without interference from the reverse reaction. So, the kinetics for hydrolysis of Mn-15-Ald, Mn-16-Ald and Mn-17-Ald follows the rate law.
where Y is the % hydrolysis, t is time, kobs,H is the first-order rate constant, and Ymax is the % hydrolysis at t=∞. Kinetic traces were obtained in triplicate, and half-lives were calculated with equation 20: […]
The novel Mn-PC2A derivatives (FIG. 1A) were synthesized in 6 steps from the pyclen macrocycle. Hydrazone formation kinetics with butyraldehyde as a model compound were measured by UV spectroscopy at 220 nm, 25° C., pH 7.4, PBS. Hydrazone hydrolysis kinetics were measured by HPLC with UV detection at 220 nm using excess formaldehyde to trap the liberated hydrazine and prevent the reverse reaction. Allysine-modified BSA (BSA-Ald, 17.4 mg/mL, […] aldehyde) as a soluble model protein or BSA (17.3 mg/mL, 16.8 μM aldehyde) and Mn-15 or Mn-17 (50-200 μM) were incubated at 37° C. for 3 hours, and 1/T1 was measured at 1.4 T, 37° C., and plotted vs concentration to obtain relaxivity. The protein bound probe was isolated by ultrafiltration and the relaxivity of the protein-bound fraction measured. All Mn concentrations were measured by ICP-MS. Liver fibrosis was induced in male C57BL/6 mice by oral gavage with CCl4 for 12 weeks, 2-3 times per week, while control mice received vehicle (olive oil). 3D FLASH images (TR/TE/FA=15 ms/2 ms/30°, 0.25 mm^3 spatial resolution) were acquired on a 4.7 T Bruker Biospec prior to and dynamically for 40 min p.i. of 100 μmol/kg Mn-15. Liver to muscle contrast to noise was calculated as CNR=(SILiver−SIMuscle)/SDAir where SI=signal intensity and SD=standard deviation in SI.

[3] = bleomycin injured mice (fibrotic lung)
[4] = butyraldehyde reaction product, formaldehyde 200 mM as trap

Compound | Change in lung to muscle ratio (ΔLMR) ([1]; Bleomycin injured mice) | Change in lung to muscle ratio (ΔLMR) ([1]; Naïve mice) | Washout T1/2 in lungs ([1]; Naïve mice (normal lung)) [min] | Washout T1/2 in lungs [1, 3] | fold higher signal in fibrotic lung than GdCHyd ([1]; bleomycin day 14, pairwise study, same time point post injection) [fold] | ΔCNR of lung, pair-wise comparison ([1]; bleomycin injured mice, 25 min post injection, individual mice ID 1-4) | hydrolysis rate constant [2] [s⁻¹] | hydrolysis rate constant [2, 4] | times higher hydrolysis rate constant compared to Mn-17 [2] [fold] | ΔLMR in lungs, pair-wise comparison [1]
CN(C)C(CCC(=O)NCCCN1CCN(CC(=O)[O-])Cc2cccc(n2)CN(CC(=O)[O-])CC1)C(=O)O.[Mn+2] (stereo not drawn) [Mn-18] | 0.04 | 0.01 | 15.7 ± 1.8 | 18.9 ± 2.0 min | – | – | – | – | – | –
NN1CCN(C(=O)CCC(C(=O)[O-])N2CCN(CC(=O)[O-])CCN(CC(=O)[O-])CCN(C(CCC(=O)N3CCN(N)CC3)C(=O)[O-])CC2)CC1.[Gd+3] (stereo not drawn) [Gd-9, cis-1,4-Gd-(CHyd)2] | – | – | – | – | 3 | 3.7 and 4.3 and 3.0 and 4.0 | – | – | – | –
NOC(CCC(=O)NCCCN1CCN(CC(=O)[O-])Cc2cccc(n2)CN(CC(=O)[O-])CC1)C(=O)O.[Mn+2] (stereo not drawn) [Mn-16] | 0.18 | 0.00 | 17.9 ± 3.2 | >240 min | – | – | 7.9e-07 | 0.79 ± 0.03 ×10^−6 s^−1 | – | –
NNC(CCC(=O)NCCCN1CCN(CC(=O)[O-])Cc2cccc(n2)CN(CC(=O)[O-])CC1)C(=O)O.[Mn+2] (stereo not drawn) [Mn-15] | 0.13 | 0.00 | 13.7 ± 1.4 | 33.5 ± 5.1 min and 33.6 ± 5.1 min | – | – | 0.00103 | 1.03 ± 0.15 ×10^−3 s^−1 | 2 | 0.06 and 0.11 and 0.18 (2×) and 0.08 and 0.15
NNCC(=O)NCCCN1CCN(CC(=O)[O-])Cc2cccc(n2)CN(CC(=O)[O-])CC1.[Mn+2] [Mn-17] | 0.15 | 0.00 | 15.1 ± 1.9 | 41.5 ± 6.3 min | – | – | 0.00041 | 0.41 ± 0.01 ×10^−3 s^−1 | – | 0.09 and 0.18 (2×) and 0.27 and 0.15 (2×)
